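Grown in 96-well plates, cells were treated for 48 hours with each compound at five concentrations. Insufficient inhibition: endpoint recorded as highest concentration tested. GI50 marks 50% less growth. At the TGI there is no net growth.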
Columns and labels:
Assay in all cases: growth of human tumour cells (NCI), 48 h
[1] = test system: U251 CNS
[2] = test system: SF-539 CNS
[3] = test system: SF-268 CNS
[4] = test system: SK-MEL-28 melanoma
[5] = test system: RPMI-8226 leukemia
[6] = test system: COLO 205 colon
[7] = test system: NCI-H522 lung
[8] = test system: OVCAR-3 ovarian
[9] = test system: HOP-92 NSCLC
[10] = test system: M14 melanoma

Row | SMILES | GI50 [1] [µM] | TGI [1] [µM] | GI50 [2] [µM] | TGI [2] [µM] | GI50 [3] [µM] | TGI [3] [µM] | GI50 [4] [µM] | TGI [4] [µM] | GI50 [5] [µM] | TGI [5] [µM] | GI50 [6] [µM] | TGI [6] [µM] | GI50 [7] [µM] | TGI [7] [µM] | GI50 [8] [µM] | TGI [8] [µM] | GI50 [9] [µM] | TGI [9] [µM] | GI50 [10] [µM] | TGI [10] [µM]
1 | OCC1OC(N2C=C(c3nc4ccccc4s3)C3C=CC=CC32)C(O)C1O (configuration not stated) | 6 | 14.8 | 8.08 | 17.8 | 8.11 | > 50 | 10.8 | 27.8 | 7.57 | 21.8 | 14.1 | 49.6 | > 50 | > 50 | 13.4 | 36.6 | 6.62 | 20.5 | 9.6 | 22.4
2 | O=C1NC(=O)C(c2ccccc2Cl)=C1Nc1cccc(O)c1 | 9.32 | > 25 | 8.93 | > 25 | 12.5 | > 25 | > 25 | > 25 | 21.4 | > 25 | 7.17 | > 21.6 | 2.17 | > 25 | 4.95 | > 25 | 8.53 | > 25 | > 25 | > 25
3 | O=c1c(OC/C(=N/O)c2ccccc2)c(-c2ccccc2)oc2ccccc12 | 11 | 27.3 | 12.5 | 28 | 11.7 | 25 | 16.6 | 28.9 | 7.07 | 15.6 | 14.8 | 42.9 | 17 | > 50 | 8.06 | 20.1 | 14.3 | > 50 | 19.4 | > 50
4 | COc1ccc(/C=[N+](\[O-])[C@H](COCc2ccccc2)c2ccccc2)cc1 |  | > 100 |  | > 100 |  | > 100 |  | > 100 |  | > 100 |  | > 100 |  | > 100 |  | > 100 |  | > 100 |  | 
5 | C=C1C(=O)O[C@H]2[C@H]1CC/C(COC(=O)c1ccc(C(=O)O)s1)=C\CC[C@@]1(C)O[C@@H]21 | 2.61 | 8.37 | 1.62 | 3.04 | 2.08 | 4.69 | 2.1 | 4.83 | 1.97 | 5.98 | 2.01 | 3.92 | 1.93 | 3.87 | 1.43 | 2.98 | 1.61 | 3.45 | 1.52 | 3.43
6 | CC(SC1=CC(=O)c2c(O)ccc(O)c2C1=O)C(=O)O (configuration not stated) |  | > 60.1 |  | > 100 |  | > 75.1 |  | > 80.1 |  | > 96.2 |  | > 60.3 |  | 9.79 |  | 53.1 |  | > 83.1 |  | > 75.8
7 | CCOC(=O)/C(=C\c1ccc(CO)o1)P(=O)(OCC)OCC |  | > 100 |  | 40.3 |  | 75.8 |  | 82.3 |  | 91.4 |  | 51 |  | 15.4 |  | 59.9 |  | 53.7 |  | 98
8 | CC/C=C\C[C@H](O)C/C=C1/C(=O)C=C[C@@H]1C/C=C\CCCC(N)=O | 1.5 | 4.12 |  |  | 2.96 | 11.7 | 1.93 | 4.26 | 1.14 | 5.24 | 2.11 | 4.72 | 1.3 | 2.67 | 1.26 | 4.22 | 3.15 | 6.74 | 2.31 | 6.89
9 | CC1=C(N2CC2)C(=O)c2nc3n(c2C1=O)CCC3O (configuration not stated) |  | 0.962 |  | 0.669 |  | 0.629 |  | 0.872 |  | 10.2 |  | 1.33 |  | 0.262 |  | 0.763 |  | 5.72 |  | 2.8
10 | CN(C)CN1C(=O)S/C(=C2\C(=O)N(CN(C)C)c3ccccc32)C1=O |  | > 100 |  | > 100 |  | > 100 |  | > 100 |  | 54.8 |  | > 100 |  | > 100 |  | > 100 |  | > 100 |  | 68.3
11 | CCC(=O)N1C/C(=C/c2ccc(OC)cc2)C(=O)/C(=C/c2ccc(OC)cc2)C1 | 1.78 | 4.08 | 1.62 | 3.1 | 2.31 | 5.71 | 1.85 | 3.74 | 0.231 | 0.748 | 1.99 | 3.65 | 1.85 | 3.86 | 1.82 | 3.73 | 2.11 | 7.77 | 1.92 | 3.96
12 | CCCN(CCCCC(NC(C)=O)C(=O)NCc1ccccc1)C(=O)NC (configuration not stated) |  | > 100 |  | > 100 |  | > 100 |  | > 100 |  | > 100 |  | > 100 |  | > 100 |  | > 100 |  | > 100 |  | > 100
13 | COc1ccc2c(C3(O)CCNCC3)c[nH]c2c1 |  | > 100 |  | > 100 |  | > 100 |  | > 100 |  | > 100 |  | > 100 |  | > 100 |  | > 100 |  | > 100 |  | > 100
14 | Cc1ccc(C)c(NC(=O)/C(=N\NC(N)=S)C(C#N)c2ccccc2)c1 (configuration not stated) |  | > 100 |  | > 100 |  | > 100 |  | > 100 |  | > 100 |  | > 100 |  | > 100 |  | > 100 |  | > 100 |  | > 100
15 | Cn1c2ccccc2n2c3nc4ccccc4nc3c(C#N)c12 |  | > 100 |  | > 100 |  | > 100 |  | > 100 |  | > 100 |  | > 100 |  | > 96.6 |  | > 100 |  | > 100 |  | > 100
16 | O=C(O)c1nnsc1COCc1ccccc1 |  | > 100 |  | > 100 |  | > 100 |  | > 100 |  | > 100 |  | > 100 |  | > 100 |  | > 100 |  | > 100 |  | > 100
17 | O=C(O)C(Cc1ccc(O)c([N+](=O)[O-])c1)N1C(=O)c2ccccc2C1=O (configuration not stated) |  | > 100 |  | > 100 |  | > 100 |  | > 100 |  | > 100 |  | > 100 |  | > 100 |  | > 100 |  | > 100 |  | > 100

— PubChem BioAssay (NCI)
